Data published in patent US20050065199A1, “Low-salt or salt-free microbicidal composition based on isothiazolone derivatives and pyrion disulphide” (priority 2003, published 2005).
Like-named read-outs stand apart in the source and are kept apart here.

Columns and labels:
[1] = Stabilization of Kathon 39 FG / bromo-2-nitropropane-1,3-diol basic preparation: appearance and pH on storage
Experimental: A basic preparation which contained 88.34% of purified water, 6.00% of bromo-2-nitropropane-1,3-diol and 5.66% of Kathon 39 FG was made. […] Kathon 39 FG is a mixture of CMI and MI prepared with solvent and a low salt and water content (available from Rohm & Haas Company). Thereafter, 100 g of the basic preparation were brought to a pH of 5.16 with triethanolamine (preparation A) and with imidazole to a pH of 5.32 (preparation B). Preparation C was prepared with the addition of 0.1% of pyrion disulphide to 100 g of the basic preparation. The basic preparation D (without addition) acted as reference. The appearance of a freshly made preparation and the appearance as affected by increasing storage times were examined. In addition, the pH of all preparations was tested after 35 days.

[2] = Experimental: Moreover, it is preferred that the reaction is carried out over a period of 5 minutes to 4 hours, preferably up to 120 minutes and in particular up to 60 minutes. Suitable reaction temperatures are in the range of from 0 to 80° C., preferably 10 to 40° C. and in particular 20 to 30° C. If appropriate, the stabilizer solution obtained after the reaction can be filtered in order to remove troublesome solid components.

stabilization of aqueous CMI/MI-based preparation containing 6.00% of bromo-2-nitropropane-1,3-diol [1] | solubility in water [2] [% by weight] | Structure (SMILES) | stabilization of aqueous CMI/MI-based preparation containing 6.00% of bromo-2-nitropropane-1,3-diol ([1]; additive to the basic preparation, versus basic preparation D)
– | – | c1c[nH]cn1 [imidazole] | stabilizing effect on the composition, albeit to a lesser extent
improved | 0.9 | [O-][n+]1ccccc1SSc1cccc[n+]1[O-] [pyrion disulphide, 2,2′-dithiobis(pyridine N-oxide)] | –
